# Test results: patent US20070161551A1, “Methods and compositions for the treatment of lipodystrophy” (priority 2004, published 2007)
# Where two headings read alike, the source gives them in different places.
# Tests used:
# patients with HIV/AIDS = conditions: cited from earlier work; for insulin-like growth factor-I (IGF-I) levels: during treatment
# [1] = tested on: HIV/AIDS wasting patients; conditions: cited from earlier work
# [2] = tested on: AIDS patients that manifest symptoms of HADDS; assay: Combined rhGH (SEROSTIM) plus statin therapy in AIDS patients with HADDS symptoms; assay type: in vivo, human; conditions: after 3 months; combined therapy versus rhGH alone or statin alone
# Protocol: AIDS patients with a history of long-term use (an average of 12 months) of HAART that manifest symptoms of HADDS, including buffalo humps, central adiposity and peripheral muscle wasting associated with fatigue, along with elevated levels of plasma triglycerides and/or cholesterol are selected for the study. Therapy with rhGH (SEROSTIM®) is initiated in all patients at a dose of e.g., 4 mg/day subcutaneously (other concentrations, e.g., 6 mg/day could be used). At the same time, the patients are treated with a statin in a dosage amount of 40 mg/day, which is administered orally. This dosage amount is based on the average dose of statin drugs commonly administered for antilipemic purposes. The patients are maintained on this […] for three months and monitored every two weeks for improvements of fat maldistribution. In parallel therapies, patients are treated with just rhGH and just statin.
# patients with HADDS = conditions: cited from earlier work
# [3] = tested on: patients with overt AIDS wasting; conditions: cited from earlier work
# ob/ob mice = conditions: daily injections, cited from earlier work
# normal mice = conditions: cited from earlier work
# [4] = at 12 weeks, not deemed clinically significant (Engleson et al. 1999)
# [5] = rhGH 4 to 6 mg/day, by four months (Torres 1999)
substance,measurement,setting,value
"hGH: Human growth hormone, single polypeptide chain of 191 amino acids having two disulfide bonds",weight loss preceding the study,"patients with HIV/AIDS; 5.0 mg qod, four patients who completed the study",reversed
same,safety of supraphysiologic doses,"[1]; in vivo, sc",safely administered
"rhGH: Recombinant human growth hormone, rhGH, produced by Serono S. A. as SEROSTIM®",improvement in fat maldistribution,[2],do not experience as dramatic an improvement
same,insulin-like growth factor-I (IGF-I) levels,patients with HIV/AIDS; 2.5 mg qod,no significant change
same,insulin-like growth factor-I (IGF-I) levels,patients with HIV/AIDS; 5.0 mg qod,increased significantly
same,visceral adiposity,"patients with HADDS; Engleson et al. 1999, Mauss et al. 1998",reduce
same,solitary lipomas,patients with HADDS; Milano et al. 1999,reduce
same,buffalo hump,"patients with HADDS; Torres 1998, 1999",reduce
same,abdominal girth,patients with HADDS; Wanke et al. 1999,reduce
same,HDL cholesterol and glucose,patients with HADDS; [4],increased
same,total cholesterol and fasting triglycerides,patients with HADDS; [4],dropped significantly
same,collective side effects of rhGH administration,"patients with HADDS; human, in vivo","swelling of the fingers or paresthesia due to tissue turgor, a few transient elevations of fasting glucose and triglycerides"
same,lean body mass and body cell mass,patients with HADDS; quantified by bioelectrical impedance analysis,increased
same,change in peripheral lipodystrophy,patients with HADDS; [5],no change
same,increase in fat free mass,patients with HADDS; [5],5 to 10%
same,size and firmness of buffalo humps,patients with HADDS; [5],significantly reduces
same,truncal adiposity,patients with HADDS; [5],reduces
same,"changes in body weight, total body fat, or blood lipids","patients with HADDS; rhGH 4 to 6 mg/day, during the treatment period (Torres 1999)",no significant or consistent changes
same,"abnormally accumulated fat, compared to baseline","patients with HADDS; s.c., 3 to 6 mg per day for 12 to 24 weeks",significantly reduces
same,effectiveness of a three-month course of therapy,"[1]; over 10,000 HIV/AIDS wasting patients since 1996",effective in the majority of patients
same,lean body mass and weight,"[3]; 0.1 mg/kg/day, 12 weeks, compared to placebo",significant increases
same,tolerability of relatively high doses,"[3]; 6 mg/day s.c., many patients with overt AIDS wasting",without developing adverse effects that require dose reduction or cessation of therapy
leptin: protein hormone of approximately 16 kDa encoded by the obese (ob) gene; recombinant mouse or human leptin,food intake,ob/ob mice; within a few days,dramatic reduction
same,reduction in body weight,ob/ob mice; within a month,~50%
same,adipose tissue,"normal mice; mouse, in vivo",profound depletion of adipose tissue
same,body weight,"normal mice; mouse, in vivo",lose weight
same,lean mass,"normal mice; mouse, in vivo",increases in lean mass
same,lipolysis in adipose tissue,"normal mice; no apparent effect on lean tissue, species not stated",promotes lipolysis
